Measurements published in US20240336609A1, “PYRIDAZINONE COMPOUNDS AND USES THEREOF” (Edgewise Therapeutics, Inc., priority 2021, published 2024).

Legend:
[1] = biological target: T1, skeletal myofibrils (myosin ATPase activity) (Oryctolagus cuniculus, UniProt Q28641); assay: Skeletal Myofibril ATPase Assay (PK/LDH-coupled, NADH absorbance at 340 nm); assay type: biochemical; settings: Rabbit Psoas myofibrils 0.25 mg/mL, ATP 0.05 mM, 1% DMSO vehicle = 100% activity
T1 construct: Rabbit Psoas Prep 11 (0.25 mg/mL)
Procedure: Overview: Myosin ATPase activity was assessed by using a coupled reaction system, in which ADP generated by the myosin ATPase function was coupled to the disappearance of NADH through the pyruvate kinase/lactate dehydrogenase (PK-LDH) system. Myosin ATPase activity produces ADP, which was used as a substrate for PK to produce pyruvate and regenerate ATP. The pyruvate was then used as a substrate by LDH to oxidize NADH to NAD+. The rate of the reaction was monitored through the time-dependent disappearance of NADH using absorbance at 340 nm. Inhibition of ATPase activity by the assayed compounds was indicated by a reduced rate of NADH loss, relative to vehicle-treated controls, over the experimental time window. To assess the selectivity of the assayed compounds for skeletal myofibrils, the compounds were counter-screened in cardiac myofibrils.
Materials: The following stock solutions and reagents were used in the Skeletal Myofibril ATPase Assay:
Stock Solutions of pCa buffer. Combine PIPES, CaCl2), and EGTA solutions with 70 mL of water. Adjust pH to 7.0 and bring final volume to 100 mL.
Buffer A & Buffer B. Butters were stored on ice until use.
Skeletal Myofibril ATPase Assay Procedure: BSA, ATP, NADH, PEP, and DTT solutions were thawed at room temperature, then transferred to ice. Pellet-frozen myofibrils (approximately twice the required volume) were transferred into a sufficiently large tube and capped. Myofibrils were thawed by rolling in a water bath for approximately 15 min at room temperature and cooled on ice. Buffers A and B were prepared by adjusting volumes as necessary for required number of wells and stored on ice. 0.5 μL of the compounds to be assayed were added into wells of a 384-well plate. Buffers A and B were mixed by inversion immediately prior to use, then 25 μL of each was dispensed using a Multidrop dispenser (Buffer A first, then Buffer B). The absorbance within the wells was measured at 340 nm, using a kinetic protocol in which the wells are read every 1.5-2 min for 1 h. The reaction rate was qualitatively assessed by subtracting the minimum absorbance value from the maximum value for each well, using either the SoftMax Pro plate reader software or a spreadsheet program such as Excel. Using GraphPad Prism 8.0, the data was normalized, with 100% activity defined as the absorbance change in the 1% DMSO vehicle wells and 0% assigned to no change in absorbance over the course of the experiment. The normalized data were fit to a variable-slope four-parameter logistic model, constraining the bottom to be 0 or greater. Compounds of Table 1 to 3 were tested and results of the assay appear in Table 4 herein. A=IC50 is less than or equal to 10 μM; B=IC50 is greater than 10 μM and less than 100 μM; C=IC50 is greater than 100 μM.

[2] = tested on: embryos from zebrafish model of DMD; settings: cited from earlier work

6-(5-(5-chloropyridin-3-yl)- 1,2,4-thiadiazol-3-yl)-2-((3- methylisoxazol-5-yl)methyl)- pyridazin-3(2H)-one [Compound 28]
IC50 [1]: ≥ 100 µM

N-ethyl-2-(5-(5-morpholino- 1,2,4-thiadiazol-3-yl)-2-oxo- pyridin-1(2H)-yl)acetamide [Compound 11]
IC50 [1]: 10 to 100 µM

Cc1ccc(S(=O)(=O)NCc2ccccc2)cc1 [N-benzyl-p-tolyl-sulfonamide (BTS), N-benzyl-p-tolyl-sulfonamide]
protection of muscles from pathological muscle derangement [2]: protect muscles from pathological muscle derangement

N-ethyl-2-(6-oxo-3-(5-(5- (trifluoromethyl)pyridin-3-yl)- 1,2,4-thiadiazol-3-yl)pyridazin- 1(6H)-yl)acetamide [Compound 19]
IC50 [1]: ≥ 100 µM

6-(5-(3-chlorophenyl)-1,2,4- thiadiazol-3-yl)-2-((3-methyl- isoxazol-5-yl)methyl)pyridazin- 3(2H)-one [Compound 27]
IC50 [1]: ≤ 10 µM

6-(3-(3-chlorophenyl)-1,2,4- thiadiazol-5-yl)-2-((3-(pyridin- 3-yl)-1,2,4-oxadiazol-5-yl)- methyl)pyridazin-3(2H)-one [Compound 22]
IC50 [1]: ≥ 100 µM

2-(5-(5-(4-chloropyridin-2-yl)- 1,2,4-oxadiazol-3-yl)-2-oxopyri- din-1(2H)-yl)-N-ethylacetamide [Compound 51]
IC50 [1]: 10 to 100 µM
